In patent US12070513B2, “PSMA-binding agents and uses thereof” (The Johns Hopkins University, priority 2008, dated 2024):
Several values for one entry are separate records, joined by “and”; a condition that tells them apart may be missing. Equal values may be shown once. Entries after “also recorded” stand apart in the source; their conditions may differ.

Columns and labels:
[1] = system: PC-3 PIP (PSMA+) and PC-3 flu (PSMA−) xenograft-bearing SCID mice; assay: Ex vivo biodistribution in tumor-bearing mice
[2] = system: PC-3 PIP and PC-3 flu xenografts in SCID mouse; assay: PET-CT imaging of [18F]6; assay type: in vivo; settings: 94-120 min p.i., PC-3 PIP and PC-3 flu tumors
Experimental: Compound [^18F]6. In vivo PET-CT: A SCID mouse bearing subcutaneous PC-3 PIP and PC-3 flu xenografts was anesthetized using 3% isoflurane in oxygen for induction and 1.5% isoflurane in oxygen at 0.8 L/min flow for maintenance and positioned prone on the gantry of a GE eXplore Vista small animal PET scanner (GE Healthcare, Milwaukee, Wis.). The mouse was injected intravenously with 7.4 MBq (200 μCi) of [^18F]6 followed by image acquisition using the following protocol: The images were acquired as a pseudodynamic scan, i.e., a sequence of successive whole-body images acquired in three bed positions for a total of 90 min. The dwell time at each position was 5 minutes, such that a given bed position (or mouse organ) was revisited every 15 min. An energy window of 250-700 keV was used. Images were reconstructed using the FORE/2D-OSEM method (2 iterations, 16 subsets) and included corrections for radioactive decay, scanner dead time and scattered radiation.

[3] = Stability of radiolabeled product after synthesis; assay type: physicochemical; settings: after radiosynthesis and HPLC
Experimental: Synthesis of 2-[3-(1-carboxy-5-{4-[N′-(4-[^18F]fluoro-benzylidene)-hydrazino]-benzoylamino}-pentyl)-ureido]-pentanedioic acid (^18F]12). 4-[^18F]fluorobenzaldehyde was synthesized by using a known procedure (Nuclear Medicine and Biology 33 (2006) 677-683). To the crude DMSO solution of 4-[^18F]fluorobenzaldehyde was added 1-2 mg of compound 14, 0.2 mL of 50 mM KH2PO4. The vial was closed and heated at 90° C. for […]. The reaction mixture was then purified by HPLC (Ecomosphere C18 10μ, 250×10 mm, H2O/CH3CN/TFA [70/30/0.1], 4 mL/min). The radiochemical yield (decay corrected and based on starting [^18F] fluoride, n=2) was 30-55%. […] The specific activity of final compound was not determined.

[4] = system: PC-3 PIP and PC-3 flu xenografts in SCID mouse; assay: SPECT-CT imaging of [125I]3 in PCa tumor models; assay type: in vivo; settings: 4 h p.i., PC-3 PIP and PC-3 flu tumors
Experimental: At 4 and 6 h p.i. the mouse was anesthetized with isoflurane and maintained under 1% isoflurane in oxygen. The mouse was positioned on the X-SPECT (Gamma Medica, Northridge, Calif.) gantry and was scanned using two low energy, high-resolution pinhole collimators (Gamma Medica) rotating through 360° in 6° increments for 45 seconds per increment. All gamma images were reconstructed using Lunagem software (Gamma Medica, Northridge, Calif.) Immediately following SPECT acquisition, the mice were then scanned by CT (X-SPECT) over a 4.6 cm field-of-view using a 600 μA, 50 kV beam. […] Data were reconstructed using the Ordered Subsets-Expectation Maximization (OS-EM) algorithm.

[5] = target: PSMA, lysates of LNCaP cell extracts (Homo sapiens (Human), UniProt Q04609); assay: fluorescence-based PSMA inhibition assay (Amplex Red glutamic acid kit); assay type: biochemical; settings: 4 μM NAAG
[6] = target: NAALADase (PSMA) prepared from LNCaP cell lysates (Homo sapiens (Human), UniProt Q04609); assay: NAALADase (radiometric) assay, NAAG hydrolysis; assay type: biochemical; settings: [3H]NAAG 30 nM

PSMA, lysates of LNCaP cell extracts, sequence (Q04609 whole entry): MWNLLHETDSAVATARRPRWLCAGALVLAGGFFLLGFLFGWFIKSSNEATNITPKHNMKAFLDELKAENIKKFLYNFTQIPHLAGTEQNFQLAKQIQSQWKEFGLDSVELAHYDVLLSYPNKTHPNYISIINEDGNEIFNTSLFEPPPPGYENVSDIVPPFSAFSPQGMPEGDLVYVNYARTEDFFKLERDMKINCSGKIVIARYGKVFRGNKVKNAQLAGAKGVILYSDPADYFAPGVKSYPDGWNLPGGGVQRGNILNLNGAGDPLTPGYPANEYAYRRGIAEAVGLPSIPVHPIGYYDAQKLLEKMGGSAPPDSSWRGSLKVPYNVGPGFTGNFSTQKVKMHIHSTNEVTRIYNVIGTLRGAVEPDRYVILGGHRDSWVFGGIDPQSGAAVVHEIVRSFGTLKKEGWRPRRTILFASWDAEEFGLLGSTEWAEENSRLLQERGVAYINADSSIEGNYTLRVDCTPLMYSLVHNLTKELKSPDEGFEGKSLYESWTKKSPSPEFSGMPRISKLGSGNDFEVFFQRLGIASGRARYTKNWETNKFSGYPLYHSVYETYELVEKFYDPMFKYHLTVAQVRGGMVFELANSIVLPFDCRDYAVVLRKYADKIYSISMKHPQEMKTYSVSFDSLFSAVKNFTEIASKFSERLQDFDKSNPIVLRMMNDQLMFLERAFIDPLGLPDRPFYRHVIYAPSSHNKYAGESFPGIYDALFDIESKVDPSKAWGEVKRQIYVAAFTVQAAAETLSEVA

## O=C(O)CCC(NC(=O)NC(CCCCNC(=O)c1ccc([18F])cc1)C(=O)O)C(=O)O (stereo not drawn) [[^18F]6, 2-{3-[1-carboxy-5-(4-[^18F]fluoro-benzoylamino)-pentyl]-ureido}-pentanedioic acid]
[1]; 30 min p.i.
  PC-3 PIP tumor uptake: 8.58±3.09 % ID/g and 8.6 ± 3.1 % ID/g
  PC-3 flu tumor uptake: 0.8 ± 0.3 % ID/g
  PIP tumor:bladder ratio: (1)
  PIP tumor:blood ratio: (3)
  PIP tumor:heart ratio: (11)
  PIP tumor:kidney ratio: (0.1)
  PIP tumor:large intestine ratio: (7)
  PIP tumor:liver ratio: (1)
  PIP tumor:lung ratio: (5)
  PIP tumor:muscle ratio: (4)
  PIP tumor:pancreas ratio: (11)
  PIP tumor:small intestine ratio: (5)
  PIP tumor:spleen ratio: (0.7)
  PIP tumor:stomach ratio: (11)
  PIP:flu ratio: 11
  bladder uptake: 6.8 ± 3.5 % ID/g
  blood uptake: 2.5 ± 1.7 % ID/g
  heart uptake: 0.8 ± 0.1 % ID/g
  kidney uptake: 72.05±3.19 % ID/g and 72 ± 3 % ID/g
  large intestine uptake: 1.2 ± 0.8 % ID/g
  liver uptake: 8.7 ± 1.8 % ID/g
  lung uptake: 1.7 ± 0.3 % ID/g
  muscle uptake: 2.4 ± 3.1 % ID/g
  pancreas uptake: 0.8 ± 0.1 % ID/g
  small intestine uptake: 1.7 ± 0.7 % ID/g
  spleen uptake: 12.67±0.36 % ID/g and 12.7 ± 0.4 % ID/g
  stomach uptake: 0.8 ± 0.1 % ID/g
[1]; 60 min p.i.
  PC-3 PIP tumor uptake: 6.4 ± 0.9 % ID/g
  PC-3 flu tumor uptake: 0.3 ± 0.05 % ID/g
  PIP tumor:bladder ratio: (0.4)
  PIP tumor:blood ratio: (9)
  PIP tumor:heart ratio: (35)
  PIP tumor:kidney ratio: (0.1)
  PIP tumor:large intestine ratio: (13)
  PIP tumor:liver ratio: (1)
  PIP tumor:lung ratio: (13)
  PIP tumor:muscle ratio: (13)
  PIP tumor:pancreas ratio: (21)
  PIP tumor:small intestine ratio: (11)
  PIP tumor:spleen ratio: (1)
  PIP tumor:stomach ratio: (26)
  PIP:flu ratio: 21
  bladder uptake: 17 ± 21 % ID/g
  blood uptake: 0.7 ± 0.5 % ID/g
  heart uptake: 0.2 ± 0.02 % ID/g
  kidney uptake: 48 ± 5 % ID/g
  large intestine uptake: 0.5 ± 0.1 % ID/g
  liver uptake: 5.8 ± 0.6 % ID/g
  lung uptake: 0.5 ± 0.1 % ID/g
  muscle uptake: 0.5 ± 0.7 % ID/g
  pancreas uptake: 0.3 ± 0.1 % ID/g
  small intestine uptake: 0.6 ± 0.2 % ID/g
  spleen uptake: 7.2 ± 1.6 % ID/g
  stomach uptake: 0.25 ± 0.1 % ID/g
[1]; 2 h p.i.
  PC-3 PIP tumor uptake: 3.7 ± 1.2 % ID/g
  PC-3 flu tumor uptake: 0.25 ± 0.1 % ID/g
  PIP tumor:bladder ratio: (0.3)
  PIP tumor:blood ratio: (9)
  PIP tumor:heart ratio: (25)
  PIP tumor:kidney ratio: (0.1)
  PIP tumor:large intestine ratio: (19)
  PIP tumor:liver ratio: (0.3)
  PIP tumor:lung ratio: (4)
  PIP tumor:muscle ratio: (19)
  PIP tumor:pancreas ratio: (25)
  PIP tumor:small intestine ratio: (12)
  PIP tumor:spleen ratio: (1)
  PIP tumor:stomach ratio: (13)
  PIP:flu ratio: 15
  bladder uptake: 11 ± 8 % ID/g
  blood uptake: 0.4 ± 0.2 % ID/g
  heart uptake: 0.15 ± 0.05 % ID/g
  kidney uptake: 29 ± 12 % ID/g
  large intestine uptake: 0.2 ± 0.1 % ID/g
  liver uptake: 11.7 ± 7.0 % ID/g
  lung uptake: 1.0 ± 0.9 % ID/g
  muscle uptake: 0.2 ± 0.1 % ID/g
  pancreas uptake: 0.15 ± 0.03 % ID/g
  small intestine uptake: 0.3 ± 0.2 % ID/g
  spleen uptake: 4.4 ± 1.2 % ID/g
  stomach uptake: 0.3 ± 0.1 % ID/g
[1]; 5 h p.i.
  PC-3 PIP tumor uptake: 3.5 ± 2.3 % ID/g
  PC-3 flu tumor uptake: 0.1 ± 0.1 % ID/g
  PIP tumor:bladder ratio: (0.7)
  PIP tumor:blood ratio: (117)
  PIP tumor:heart ratio: (117)
  PIP tumor:kidney ratio: (0.3)
  PIP tumor:large intestine ratio: (6)
  PIP tumor:liver ratio: (3.5)
  PIP tumor:lung ratio: (35)
  PIP tumor:muscle ratio: (35)
  PIP tumor:pancreas ratio: (70)
  PIP tumor:small intestine ratio: (35)
  PIP tumor:spleen ratio: (3.5)
  PIP tumor:stomach ratio: (88)
  PIP:flu ratio: 35
  bladder uptake: 5.2 ± 8.9 % ID/g
  blood uptake: 0.03 ± 0.00 % ID/g
  heart uptake: 0.03 ± 0.01 % ID/g
  kidney uptake: 14 ± 9 % ID/g
  large intestine uptake: 0.6 ± 0.6 % ID/g
  liver uptake: 1.0 ± 0.6 % ID/g
  lung uptake: 0.1 ± 0.1 % ID/g
  muscle uptake: 0.1 ± 0.1 % ID/g
  pancreas uptake: 0.05 ± 0.03 % ID/g
  small intestine uptake: 0.1 ± 0.04 % ID/g
  spleen uptake: 1.0 ± 0.6 % ID/g
  stomach uptake: 0.04 ± 0.02 % ID/g
[2]
  uptake pattern in PET-CT: easily observed within PIP tumor, none within flu tumor, high renal uptake and a modest degree of liver uptake; also recorded: uptake within the PSMA+ PIP tumor only

## O=C(O)CCC(NC(=O)NC(CCCCNC(=O)c1ccc(NN=Cc2ccc(F)cc2)cc1)C(=O)O)C(=O)O (stereo not drawn) [Compound 12, 2-[3-(1-carboxy-5-{4-[N′-(4-fluoro-benzylidene)-hydrazino]-benzoylamino}-pentyl)-ureido]-pentanedioic acid]
[3]
  stability of compound after preparation: decomposed soon after been made

## O=C(O)CCC(NC(=O)NC(CCCCNC(=O)c1ccc([125I])cc1)C(=O)O)C(=O)O (stereo not drawn) [[^125I]3, 2-{3-[1-carboxy-5-(4-[^125I]iodo-benzoylamino)-pentyl]-ureido}-pentanedioic acid]
[4]
  radiopharmaceutical uptake in SPECT-CT image: intense uptake in the PC-3 PIP and absence of uptake in the PC-3 flu tumor; also recorded: uptake within the PSMA+ PIP tumor only

## O=C(O)CCC(NC(=O)NC(CCCCNC(=O)c1ccc(F)cc1)C(=O)O)C(=O)O (stereo not drawn) [Compound 6, 2-{3-[1-Carboxy-5-(4-fluoro-benzoylamino)-pentyl]-ureido}-pentanedioic acid]
[1]; 5 h p.i.
  PIP:flu ratio: 31
[5]
  Ki: 0.194 nM
[6]
  Ki: 0.256 nM
